In one test the target is T1, human ALK2 R206H (Homo sapiens, UniProt Q04771, R206H).
T1 construct: expressed in transfected cells; host or cells: HEK293 (ATCC CRL1573), lentivirus transduction, blasticidin selection
T1 sequence (Q04771 21-509 R206H): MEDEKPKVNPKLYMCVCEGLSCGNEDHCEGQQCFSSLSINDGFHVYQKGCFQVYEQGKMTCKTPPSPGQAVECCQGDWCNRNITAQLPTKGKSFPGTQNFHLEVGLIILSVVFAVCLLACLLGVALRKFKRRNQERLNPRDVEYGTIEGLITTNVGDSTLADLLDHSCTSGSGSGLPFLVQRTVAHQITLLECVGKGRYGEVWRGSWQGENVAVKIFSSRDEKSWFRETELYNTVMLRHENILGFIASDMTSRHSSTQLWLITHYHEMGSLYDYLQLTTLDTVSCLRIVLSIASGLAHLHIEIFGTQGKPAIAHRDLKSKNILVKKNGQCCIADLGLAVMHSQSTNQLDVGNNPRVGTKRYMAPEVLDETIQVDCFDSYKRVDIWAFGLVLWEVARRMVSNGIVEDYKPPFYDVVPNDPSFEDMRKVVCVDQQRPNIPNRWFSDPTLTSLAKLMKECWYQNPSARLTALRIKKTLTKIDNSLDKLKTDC
In words: Cell-based ALK2-R206H cell activity assay (Smad1-Ser463/Ser465 phosphorylation by AlphaLISA in HEK293-ALK2-R206H cells). As to conditions: read-out: Cell Line (Cell Assay IC50). In short, it runs like this:
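Stable HEK293 cells expressing C-terminally FLAG-tagged human ALK2 R206H (lentiviral, blasticidin-selected) were treated with compounds in 10-point, 3-fold dilutions from 10 μM or 1 μM top, in duplicate. Smad1 Ser463/Ser465 phosphorylation was read by AlphaLISA.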
On the technique in general: Bead proximity is the source of the signal in Alpha formats.

The target of test [1] is T2, ALK2 R206H (GST-tagged mutant ALK2) (Homo sapiens, UniProt Q04771, R206H).
T2 construct: purchased Carna Bioscience or ThermoFisher 09-148 or PV6232
T2 sequence (Q04771 21-509 R206H): T1 sequence (Q04771 21-509 R206H)
In words: ALK binding assay (LANTHASCREEN TR-FRET competitive binding, displacement of Kinase Tracer 178). As to conditions: ALK2 R206H, LANTHASCREEN TR-FRET competitive binding; read-out: Binding Assay (IC50).

As a reminder, the IC50 is the midpoint of a concentration-inhibition curve.

Turning to `CCOC(=O)N1CCN(c2ccnn3cc(-c4ccc(C5COCCN5)cc4)cc23)CC1` (centres unmarked) [Compound 468], the IC50 at human ALK2 R206H is less than 100 nM; in test [1], less than 10 nM.

In the case of `CC(C)NC(=O)N1CCN(c2ccnn3cc(-c4cnn([C@@H]5CCCNC5)c4)cc23)CC1` [Compound 469], the 50% inhibitory concentration (IC50) on human ALK2 R206H is less than 100 nM; in test [1] it was less than 10 nM.

`CC(C)NC(=O)N1CCN(c2ccnn3cc(-c4cnn([C@H]5CCCNC5)c4)cc23)CC1` [Compound 470]: the IC50 on human ALK2 R206H was less than 100 nM; in test [1] it was less than 10 nM.

Regarding `CC(C)NC(C)(C)c1ccc(-c2cc3c(N4CCN(C(=O)C5CC5)CC4)ccnn3c2)cc1` [Compound 473], the IC50 on human ALK2 R206H is less than 100 nM; in test [1], less than 10 nM.

Take `O=C(C1CC1)N1CCN(c2ccnn3cc(-c4ccc(C5(F)CCNCC5)cc4)cc23)CC1` [Compound 474]: the IC50 on human ALK2 R206H is 100 to 500 nM; in test [1] it was less than 10 nM.

As to `O=C(OC1COC1)N1CCN(c2ccnn3cc(-c4ccc(C5CCCN5)cn4)cc23)CC1` (centres unmarked) [Compound 475], the 50% inhibitory concentration (IC50) on human ALK2 R206H was less than 100 nM; in test [1], less than 10 nM.

For `O=C(OC1COC1)N1CCN(c2ccnn3cc(-c4ccc([C@@H]5CCCN5)cn4)cc23)CC1` [Compound 476], the IC50 is less than 100 nM on human ALK2 R206H and less than 10 nM in test [1].

For `O=C(OC1COC1)N1CCN(c2ccnn3cc(-c4ccc([C@H]5CCCN5)cn4)cc23)CC1` [Compound 477], the results for the IC50 (at human ALK2 R206H; in test [1]) were less than 100 nM and less than 10 nM, respectively.

`CC(C)NC(=O)N1CCN(c2ccnn3cc(-c4ccc(C5COCCN5)cc4)cc23)CC1` (centres unmarked) [Compound 478]: the results for the IC50 (on human ALK2 R206H; in test [1]) were less than 100 nM and less than 10 nM, respectively.

On to `CCOC(=O)N1CCN(c2ccnn3cc(-c4ccc([C@]5(F)CCCNC5)cc4)cc23)CC1` [Compound 479], for which the figures for the IC50 (at human ALK2 R206H; in test [1]) were less than 100 nM and less than 10 nM, respectively.

On to `CCOC(=O)N1CCN(c2ccnn3cc(-c4ccc([C@@]5(F)CCCNC5)cc4)cc23)CC1` [Compound 480], for which the IC50 is less than 100 nM on human ALK2 R206H and less than 10 nM in test [1].

`N#CC1(c2ccc(-c3cc4c(N5CCN(C(=O)C6CC6)CC5)ccnn4c3)cc2)CCNCC1` [Compound 481]: the IC50 on human ALK2 R206H is less than 100 nM; in test [1], less than 10 nM.

Turning to `O=C(C1CC1)N1CCN(c2ccnn3cc(-c4ccc(C56CCN(CC5)CC6)cc4)cc23)CC1` [Compound 482], the IC50 at human ALK2 R206H is less than 100 nM; in test [1], less than 10 nM.

With `CCOC(=O)N1CCN(c2ccnn3cc(-c4ccc(C5(C#N)CCNCC5)cc4)cc23)CC1` [Compound 483], the IC50 was less than 100 nM on human ALK2 R206H and less than 10 nM in test [1].

Regarding `CC(C)N1CCC[C@H]1c1ccc(-c2cc3c(N4CCN(C(=O)C5CC5)CC4)ccnn3c2)cn1` [Compound 484], the IC50 on human ALK2 R206H is less than 100 nM; in test [1], less than 10 nM.

Consider `CC(C)N1CC[C@@H](c2ccc(-c3cc4c(N5CCN(C(=O)C6CC6)CC5)ccnn4c3)nc2)C1` [Compound 485], for which the figures for the 50% inhibitory concentration (IC50) (at human ALK2 R206H; in test [1]) were less than 100 nM and less than 10 nM, respectively.

In the case of `CC(C)N1CC[C@H](c2ccc(-c3cc4c(N5CCN(C(=O)C6CC6)CC5)ccnn4c3)nc2)C1` [Compound 486], the IC50 was less than 100 nM at human ALK2 R206H and less than 10 nM in test [1].

For the compound `CC(C)N1CCC[C@@H]1c1ccc(-c2cc3c(N4CCN(C(=O)C5CC5)CC4)ccnn3c2)cn1` [Compound 487], the values for the IC50 (on human ALK2 R206H; in test [1]) were less than 100 nM and less than 10 nM, respectively.

Take `COC1(c2ccc(-c3cc4c(N5CCN(C(=O)C6CC6)CC5)ccnn4c3)cc2)CCNCC1` [Compound 488]: the half-inhibitory concentration (IC50) at human ALK2 R206H is less than 100 nM; in test [1] it was less than 10 nM.

As to `CO[C@]1(c2ccc(-c3cc4c(N5CCN(C(=O)C6CC6)CC5)ccnn4c3)cc2)CCCNC1` [Compound 489], the IC50 was less than 100 nM at human ALK2 R206H and less than 10 nM in test [1].

On to `CO[C@@]1(c2ccc(-c3cc4c(N5CCN(C(=O)C6CC6)CC5)ccnn4c3)cc2)CCCNC1` [Compound 490], for which the IC50 is less than 100 nM at human ALK2 R206H and less than 10 nM in test [1].

`COC1(c2ccc(-c3cc4c(N5CCN(C(=O)C6CC6)CC5)ccnn4c3)nc2)CCNCC1` [Compound 491]: the IC50 at human ALK2 R206H was less than 100 nM; in test [1], less than 10 nM.

`CC(C)NC(=O)N1CCN(c2ccnn3cc(-c4ccc(C5(C)CCNCC5)cc4)cc23)CC1` [Compound 492]: the IC50 on human ALK2 R206H was less than 100 nM; in test [1] it was less than 10 nM.

In the case of `CC(C)NC(C)(CO)c1ccc(-c2cc3c(N4CCN(C(=O)C5CC5)CC4)ccnn3c2)cc1` (centres unmarked) [Compound 493], the IC50 was less than 100 nM at human ALK2 R206H and less than 10 nM in test [1].

Regarding `CCNC(=O)N1CCN(c2ccnn3cc(-c4ccc([C@@H]5CCCN5C(C)C)nc4)cc23)CC1` [Compound 494], the figures for the IC50 (at human ALK2 R206H; in test [1]) were less than 100 nM and less than 10 nM, respectively.

`CCNC(=O)N1CCN(c2ccnn3cc(-c4ccc([C@@H]5CCN(C(C)C)C5)cn4)cc23)CC1` [Compound 495]: the half-inhibitory concentration (IC50) at human ALK2 R206H is less than 100 nM; in test [1] it was less than 10 nM.

`CCNC(=O)N1CCN(c2ccnn3cc(-c4ccc([C@H]5CCN(C(C)C)C5)cn4)cc23)CC1` [Compound 496]: the IC50 on human ALK2 R206H is less than 100 nM; in test [1], less than 10 nM.

`CCNC(=O)N1CCN(c2ccnn3cc(-c4ccc([C@H]5CCCN5C(C)C)nc4)cc23)CC1` [Compound 497]: the IC50 at human ALK2 R206H was less than 100 nM; in test [1], less than 10 nM.

For `CCOC(=O)N1CCN(c2ccnn3cc(-c4ccc(C5(OC)CCNCC5)cc4)cc23)CC1` [Compound 498], the results for the IC50 (on human ALK2 R206H; in test [1]) were less than 100 nM and less than 10 nM, respectively.

For `CC(C)NC(=O)N1CCN(c2ccnn3cc(-c4ccc(C5(F)CCNCC5)cc4)cc23)CC1` [Compound 499], the IC50 is 100 to 500 nM on human ALK2 R206H and less than 10 nM in test [1].

Regarding `N#C[C@H]1C[C@H](C(=O)N2CCN(c3ccnn4cc(-c5ccc([C@@H]6CCCNC6)cn5)cc34)CC2)C1` [Compound 500], the IC50 at human ALK2 R206H was 100 to 500 nM; in test [1], less than 10 nM.

Turning to `O=C(C1CC1)N1CCN(c2ccnn3cc(-c4ccc(C5(O)CN6CCC5CC6)cc4)cc23)CC1` (centres unmarked) [Compound 501], the results for the IC50 (on human ALK2 R206H; in test [1]) were 100 to 500 nM and less than 10 nM, respectively.

For the compound `CC(C)NC(=O)N1CCN(c2ccnn3cc(-c4ccc(C5(C#N)CCNCC5)cc4)cc23)CC1` [Compound 502], the values for the IC50 (at human ALK2 R206H; in test [1]) were less than 100 nM and less than 10 nM, respectively.

As for `Cc1cc(-c2cc3c(N4CCN(C(=O)C5CC5)CC4)ccnn3c2)ccc1[C@@H]1CCN(C(C)C)C1` [Compound 503], the IC50 is 100 to 500 nM at human ALK2 R206H and less than 10 nM in test [1].

As to `Cc1cc(-c2cc3c(N4CCN(C(=O)C5CC5)CC4)ccnn3c2)ccc1[C@H]1CCN(C(C)C)C1` [Compound 504], the IC50 was 100 to 500 nM on human ALK2 R206H and less than 10 nM in test [1].

For the compound `CC(C)N1C[C@@H](c2ccc(-c3cc4c(N5CCN(C(=O)C6CC6)CC5)ccnn4c3)cc2)C[C@H]1C` [Compound 505], the figures for the IC50 (at human ALK2 R206H; in test [1]) were less than 100 nM and less than 10 nM, respectively.

`CC(C)N1C[C@H](c2ccc(-c3cc4c(N5CCN(C(=O)C6CC6)CC5)ccnn4c3)cc2)C[C@@H]1C` [Compound 507]: the IC50 was less than 100 nM on human ALK2 R206H and less than 10 nM in test [1].

For the compound `CC(C)N1C[C@@H](c2ccc(-c3cc4c(N5CCN(C(=O)C6CC6)CC5)ccnn4c3)cc2)C[C@@H]1C` [Compound 508], the IC50 is 100 to 500 nM at human ALK2 R206H and less than 10 nM in test [1].

On to `CC(C)N1CCC[C@@]1(C)c1ccc(-c2cc3c(N4CCN(C(=O)C5CC5)CC4)ccnn3c2)cc1` [Compound 509], for which the IC50 is less than 100 nM on human ALK2 R206H and less than 10 nM in test [1].

`CC(C)N1CCC[C@]1(C)c1ccc(-c2cc3c(N4CCN(C(=O)C5CC5)CC4)ccnn3c2)cc1` [Compound 510]: the IC50 at human ALK2 R206H is less than 100 nM; in test [1], less than 10 nM.

As for `N#C[C@H]1C[C@@H]1C(=O)N1CCN(c2ccnn3cc(-c4ccc([C@]5(F)CCCNC5)cc4)cc23)CC1` [Compound 511], the IC50 on human ALK2 R206H is less than 100 nM; in test [1] it was less than 10 nM.

On to `N#C[C@@H]1C[C@H]1C(=O)N1CCN(c2ccnn3cc(-c4ccc([C@]5(F)CCCNC5)cc4)cc23)CC1` [Compound 512], for which the results for the IC50 (on human ALK2 R206H; in test [1]) were less than 100 nM and less than 10 nM, respectively.

As to `N#C[C@H]1C[C@@H]1C(=O)N1CCN(c2ccnn3cc(-c4ccc([C@@]5(F)CCCNC5)cc4)cc23)CC1` [Compound 513], the IC50 on human ALK2 R206H is less than 100 nM; in test [1], less than 10 nM.

For the compound `N#C[C@@H]1C[C@H]1C(=O)N1CCN(c2ccnn3cc(-c4ccc([C@@]5(F)CCCNC5)cc4)cc23)CC1` [Compound 514], the IC50 at human ALK2 R206H is less than 100 nM; in test [1], less than 10 nM.

Take `O=C(C1CC1)N1CCN(c2ccnn3cc(-c4ccc(C5CN6CCSC6=N5)cc4)cc23)CC1` (centres unmarked) [Compound 515]: the half-inhibitory concentration (IC50) is less than 100 nM at human ALK2 R206H and less than 10 nM in test [1].

In the case of `CC(C)N1CCNC(c2ccc(-c3cc4c(N5CCN(C(=O)C6CC6)CC5)ccnn4c3)cc2)C1` (centres unmarked) [Compound 516], the IC50 was less than 100 nM on human ALK2 R206H and less than 10 nM in test [1].

(Values after US10233186B2, “Inhibitors of activin receptor-like kinase” (BLUEPRINT MEDICINES CORPORATION, priority 2016, dated 2019).)
